Paper PMC8631675, “Neuroprotective effects of some epigenetic modifying drugs’ on Chlamydia pneumoniae-induced neuroinflammation: A novel model” (PLoS ONE, 2021)
Where two headings read alike, the source gives them in different places.

Legend:
[1] = test system: HMC3 microglia cells; test: Cell proliferation (cytotoxicity) analysis with xCELLigence, HMC3; assay type: cell-based, human
Description: (§1) Cell proliferation analysis was performed with xCELLigence Real-Time Cell Analysis System to assess TSA, RG108, givinostat, and rifampin concentrations for use in both models. Differentiated SH-SY5Y and HMC3 microglia cells were seeded at a 5x10^3 density per well and incubated 24 h until CI values reached a log phase. The system stopped at the end of 24 h, 100, 10 and 1 μM TSA, givinostat, RG108 and rifampin were applied on current media and the cell viability was tracked. […] Simultaneously, slope plots were drawn using the CI values at 24 and 48 hours, and the statistical significance of the values discovered by assuming the average CI values of the control wells to be 100% was calculated.

[2] = test system: differentiated SH-SY5Y cells; test: Cell proliferation (cytotoxicity) analysis with xCELLigence, SH-SY5Y; assay type: cell-based, human
Description: as §1

[3] = test system: differentiated SH-SY5Y cells; test: Cell viability against Aβ-induced neurotoxicity, xCELLigence; assay type: cell-based, human; conditions: 24 h pretreatment (drugs 100 nM; CFS 1 μg/ml + IFN-γ; LPS 100 ng/ml + IFN-γ), then 5 μM Aβ (1–42) aggregates 24 h
Description: Pathological deterioration in AD is mainly associated with overproduction of the Aβ peptide and the Aβ (1–42) variant is the toxic form that is more predominant in Alzheimer’s patients. In this study, a modified oligomeric Aβ (1–42) neurotoxicity analysis protocol was applied in order to elucidate the effects of treatment groups on SH-SY5Y cell viability in the presence of Aβ [56]. In order to model Aβ-induced neurotoxicity in vitro, an oligomeric form of the Aβ1–42 peptide was prepared by diluting with ice-cold Ham’s F12 Nutrient Mixture medium dissolved in PBS containing 0.02 M NaOH at a final concentration of 50 μM and kept in a 37°C incubator for 7 days to form peptide aggregates prior to the experiments. 5x10^3 SH-SY5Y cells were differentiated inside the xCELLigence instrument for 5 days and treated with 100 nM TSA, RG108, givinostat, rifampin; 100 ng/ml LPS+IFN-ɣ or 1 μg/ml CFS+IFN-ɣ for 24 h in order to evaluate neuroprotection. The co-culture was performed in the same way as the neuroinflammation model. Neurotoxicity was obtained instead of neuroinflammation by diluting to 5 μM with fresh medium and adding Aβ1–42 aggregates to the wells for 24 h in 100 μl of medium. Cell viability data was then monitored for 24 h and analyzed within the instrument.

[4] = test system: differentiated SH-SY5Y cells; test: Annexin V-PI staining of Aβ-induced cell death, flow cytometry; assay type: cell-based, human; conditions: pretreatment (drugs 100 nM; LPS 100 ng/ml + IFN-γ; CFS 1 μg/ml + IFN-γ) + 5 μM Aβ 24 h
Description: To determine neuronal apoptosis associated with Aβ exposure, 25x10^3 differentiated SH-SY5Y cells were seeded in 24-well plates and Aβ was applied. After 24 h, cells were trypsinized and staining was performed according to the CF 488A Annexin V and PI Apoptosis Kit (Biotium, USA, Cat. No: 30061) protocol. After washing the cells with 1xPBS, the working solution was prepared by diluting the PI with Annexin V binding buffer included in the kit. 5 μl Annexin V and 2 μl PI working solution were added to the centrifuge tubes and binded with 100 μl Annexin V binding buffer. After the samples were incubated for 30 minutes on ice and in the dark, 400 μl of Annexin V binding buffer was added to each tube and the samples were measured and analyzed in a BD Accuri™ C6 flow cytometry device.

[5] = test system: SH-SY5Y cells; test: Total ROS/Superoxide detection; assay type: cell-based, human
Description: The Total ROS/Superoxide Detection Kit (ENZ-51010, Enzo) was used according to the kit process for evaluating the protective effects of the treatment groups on SH-SY5Y cells seeded at a 2x10^4 density per well in 96-well plates and Aβ was applied. ROS inhibitor N-acetyl cysteine (NAC) was applied at 5 mM concentration to negative control groups 30 minutes before the experiment and after incubation, 100 μL of “ROS/Superoxide Detection Solution” was added to the wells in the kit. The same procedure was done without the application of ROS inhibitor. Fluorometric analysis of stained cells was analyzed with Cytation 3 Cell Imaging Multi-Mode Reader (BioTek) using 490/525 nm and 550/620 nm filter sets.

[6] = test system: motor neurons; parameters: method as in PMID 23900692; conditions: inhibiting DNMT catalytic activity; cited from earlier work

SMILES: O=C(O)C(Cc1c[nH]c2ccccc12)N1C(=O)c2ccccc2C1=O (stereo not shown) [RG108]
- Reduction of HMC3 cell viability compared to the control group ([1]; 10 μM, 24 hours): 3.12%
- Reduction of HMC3 cell viability compared to the control group ([1]; 10 μM, 48 hours): 8.33%
- Reduction of HMC3 cell viability compared to the control group ([1]; 100 μM, 24 hours): 43.26%
- Reduction of HMC3 cell viability compared to the control group ([1]; 100 μM, 48 hours): 57.56%
- IC50 ([1]; from CI values at 24th hour, 1, 10 and 100 μM tested, read-out: IC50 Values 24h HMC3): > 400 µM
- IC50 ([1]; from CI values at 48th hour, 1, 10 and 100 μM tested, read-out: IC50 Values 48h HMC3): > 400 µM
- Reduction of differentiated SH-SY5Y cell viability ([2]; 1 μM, 24 hours): 21.98%
- Reduction of differentiated SH-SY5Y cell viability ([2]; 1 μM, 48 hours): 15.47%
- Reduction of differentiated SH-SY5Y cell viability ([2]; 10 μM, 24 hours): 43.73%
- Reduction of differentiated SH-SY5Y cell viability ([2]; 10 μM, 48 hours): 33.89%
- Reduction of differentiated SH-SY5Y cell viability ([2]; 100 μM, 24 hours): 64.03%
- Reduction of differentiated SH-SY5Y cell viability ([2]; 100 μM, 48 hours): 53.43%
- IC50 ([2]; from CI values at 24th hour, 1, 10 and 100 μM tested, read-out: IC50 Values 24h SH-SY5Y): 1.49 µM
- IC50 ([2]; from CI values at 48th hour, 1, 10 and 100 μM tested, read-out: IC50 Values 48h SH-SY5Y): 9.6 µM
- CI values compared to the control group [3]: 120.7%
- Necrotic effect (Q5-UL) ([4]; control 1.6%): 6.6%
- Apoptotic effect (early apoptosis + late apoptosis) ([4]; control 1.9%): 4.3%
- Percentage of living cells (Live) ([4]; control 96.5%): 89.1%
- Increase of total amount of ROS compared to the control group, with NAC ([5]; 30 minutes NAC 5 mM, treated (drugs 100 nM; LPS 100 ng/ml; CFS 1 μg/ml, with IFN-γ) prior to Aβ exposure): 4.29%
- Decrease of total ROS amount according to the Aβ group ([5]; cells treated (drugs 100 nM; LPS 100 ng/ml; CFS 1 μg/ml, with IFN-γ) before exposure to Aβ, without NAC): 52.61%
- Decrease of total amount of ROS compared to the control group ([5]; cells treated with compounds (100 nM) before exposure to Aβ, without NAC): 9.03%
- Effect on motor neurons [6]: protect motor neurons from excessive DNA methylation and apoptosis
